Data as given in patent US11453642B2, “Oxygenated amino- or ammonium-containing sulfonic acid, phosphonic acid and carboxylic acid derivatives and their medical use” (GRI BIO, INC., priority 2011, dated 2022).
Where “and” joins values, the source holds several entries; their conditions need not be identical. Equal entries are not always repeated. Marks after values point to notes of the source that are not given here.

Tested on: allergic contact dermatitis response in mice
Assay: Allergic contact dermatitis (TDI) model in mice, mouse ear swelling test
Assay type: in vivo
Method: The anti-inflammatory and anti-allergic effects of compounds 1a and 1c were assessed in a mouse model of allergic contact dermatitis, a response driven primarily by T helper type 2 (Th2) cells. […] In this model, an allergic dermatitis response is obtained by sensitizing mice to TDI and subsequently challenging them with antigen by topical administration onto the ears. A quantitative assessment of anti-inflammatory and anti-allergic effects of topically or orally administered test compounds is possible by measuring the resulting ear swelling. The advantages of the allergic contact dermatitis model (Zöllner et al., Bioessays 26:693-6 (2004)) are reproducibility and reliability (>90% of BALB/c mice respond to sensitization), a short induction protocol, quantitative assessment by measuring ear thickness, atopic dermatitis-like skin lesions can be induced, and clinically relevant pharmaceuticals, such as corticosteroids, calcineurin-inhibitors and PDE4-inhibitors, are effective in this model.
Female BALB/c-mice were obtained from Charles River (Sulzfeld, Germany) at age 8 weeks. All animals were housed in groups of eight per cage at 22° C. with a 12 h light/dark-cycle, Water and a standard diet (Altromin, Lage/Lippe, Germany) were available ad libitum. All animals were acclimatized for one week before experimental procedures were commenced.
Experimental procedures for BALB/c mice housing, TDI sensitization and challenge, and measurement of ear thickness were performed as previously described (Baumer et al., J Pharm Pharmacol, 55:1107-1114 (2003)) with the following modifications. For active sensitization, 100 μL of 5% (w/v) TDI was administered to the shaved and stripped abdominal epidermis on day one, and for the next three consecutive days, 50 μL of 5% (My) TDI was applied. The allergic reaction was boosted 21 days later by application of 50 μL of 0.5% (w/v) TDI. For the examination of test compound effects, the left ears were used for the TDI challenge (20 μL of 0.5% in acetone) and ear thickness measured 3 h before and 24 h after challenge.
Group size was n=7 mice unless otherwise stated. Test compounds were freshly prepared before administration.
Administration time: to determine optimal time for administration treatment groups were treated orally by gavage with 100 mg/kg of compound 1a or 1c (suspended in 0.5% tylose, 10 mL/kg) 1, 4 or 16 h before topical TDI challenge. One group was treated with 100 mg/kg miltefosine orally, 16 h before challenge (based on available data for optimal administration time for miltefosine) and vehicle treated mice received tylose (10 mL/kg) orally, 4 h before challenge.
Dose-response: two groups of mice were treated orally with compound 1a at 25 mg/kg or 100 mg/kg suspended in 0.5% tylose, 4 h before topical TDI challenge. Vehicle treated mice received 0.5% tylose orally 4 h before challenge. As a positive control, dexamethasone was administered in saline solution at 1 mg/kg or 3 mg/kg, 2 h and 30 min before challenge and 1 h after challenge. The dose and dosing scheme for dexamethasone was based on previous experience showing a maximal effect in this model.
Compound 1a was administered to two groups of mice topically in 20 μl of a 2% or 6% solution in propyleneglycol. The suspension was heated to 60° C. and mixed using a thermomixer (Eppendorf) until it became clear. The solution was applied, 2 h before topical TDI challenge by administration of 10 μl onto each of the inner and outer surfaces of the left ears. A vehicle group (17=5) was treated with propyleneglycol. As a positive control, diflorasone, diacetate was administered at 0.01% (low dose) and 0.05% (high dose) in 20 μl acetone, 2 h before challenge. A basal control group was left untreated.
Mean and standard error of the mean (SEM) were calculated from individual ear edema values. […]

[1] = administration time study, 100 mg/kg oral, 1 h before TDI challenge
[2] = administration time study, 100 mg/kg oral, 4 h before TDI challenge
[3] = administration time study, 100 mg/kg oral, 16 h before TDI challenge

SMILES | Inhibition of mouse ear swelling [1] | Inhibition of mouse ear swelling [2] | Inhibition of mouse ear swelling [3] | inhibition relative to the highest dose of dexamethasone (dose-response study, oral, versus dexamethasone 3 mg/kg) | Inhibition of mouse ear swelling (dose-response study, 25 mg/kg oral, 4 h before TDI challenge) | Inhibition of mouse ear swelling (dose-response study, 100 mg/kg oral, 4 h before TDI challenge) | toxicity at the doses used (oral 25 or 100 mg/kg) | reduction of ear swelling compared to vehicle control (topical solution at 2% or 6%) | Inhibition of mouse ear swelling (topical, 20 μl of 2% solution in propyleneglycol, 2 h before TDI challenge) | Inhibition of mouse ear swelling (topical, 20 μl of 6% solution in propyleneglycol, 2 h before TDI challenge)
CCCCCCCCCCCCCCCCN(C)CC(O)CS(=O)(=O)O (stereo not shown) [Compound 1a, 2-hydroxy-3-(N-methylhexadecylammonio)propane-sulfonate] | 72.6*** % | 73.4*** % | 29.0% | 52% | 45% and 44.9*** % | 45% and 44.4*** % | no toxicity | up to 68% | 67.9** % | 63.1** %
CCCCCCCCCCCCN(C)CC(O)CS(=O)(=O)O (stereo not shown) [Compound 1c, 2-hydroxy-3-(N-methyldodecylammonio)propanesulfonate] | 58.1** % | 68.5*** % | 42.7^§ % |  |  |  |  |  |  | 
